Each structure is given as a SMILES string. Calls of active or inactive are those of the source. No cut-off for these calls is given here. *1 amine or outer side, *2 acyl side, *3 side chain or, on linkers, in order; H or OH if unused. Where a SMILES comes first, the peptide text is derived from it. Bridges are numbered along the chain shown (N, C = ends). Roman numbers before positions name the chains, in order. [ ]: non-standard residue; d: D form. The star is where a group is joined. X2 = O=C(O)c1cc(C(=O)*)ccc1-c1c2ccc3cc(O)ccc3c2oc2c1ccc1cc(=O)ccc12; 2Nal = N[C@@H](Cc1ccc2ccccc2c1)C(=O)O; mXylylene = c1cc(C[*:1])cc(C[*:2])c1; AEEA = NCCOCCOCC(=O)O; βAla = NCCC(=O)O

The test system of data set [1] is MCF7. Briefly: Antiproliferative activity against human MCF7 cells incubated for 72 hrs by MTT assay. Type of data set: functional, cell-based.
Another data set concerns SW480. Put plainly: Antiproliferative activity against human SW480 cells incubated for 72 hrs by MTT assay. Particulars: SW480, 72 h. The format is functional, cell-based. Background: Tetrazolium assays rely on reduction of a dye to a coloured formazan, in cell work by metabolically active cells.
Data set [2] has as its system HeLa. Briefly: Induction of cell membrane disruption in human HeLa cells incubated for 4 hrs using FAM-labeled compound by LDH assay. The format is cell-based.
Data set [3] has as its system SJSA-1. Particulars: Homo sapiens.
Data set [4] relates to HeLa. Briefly: Cytotoxicity against human HeLa cells incubated for 72 hrs using FAM-labeled compound by MTT assay. The format is cell-based.
Data set [5] relates to SJSA-1. Briefly: Antiproliferative activity against human SJSA1 cells expressing wild-type p53 upto 20 uM incubated for 72 hrs by MTT assay. Type of data set: functional, cell-based.
Data set [6] concerns SJSA-1. Briefly: cells. Particulars: Homo sapiens, SJSA-1, 72 h.
Data set [7] has as its system MCF7. Briefly: Induction of apoptosis in human MCF7 cells expressing wild-type p53 at =< 10 uM incubated for 48 hrs by Annexin V/propidium iodide-staining based flow cytometric analysis relative to control. The format is functional. Background: In flow cytometry, cells or beads pass a laser one at a time.
Data set [8] deals with HeLa. Briefly: Induction of cell membrane disruption in human HeLa cells expressing wild-type p53 at =>20 uM incubated for 4 hrs by LDH assay relative to control. Type of data set: functional.
The subject of data set [9] is SJSA-1. Briefly: Induction of apoptosis in human SJSA1 cells at 10 uM incubated for 48 hrs by Annexin V/propidium iodide-staining based flow cytometric analysis. Type of data set: functional, cell-based.
Data set [10] relates to HeLa. Briefly: Induction of apoptosis in human HeLa cells expressing wild-type p53 at =< 10 uM incubated for 48 hrs by Annexin V/propidium iodide-staining based flow cytometric analysis relative to control. Type of data set: functional.
In data set [11] the test system is MCF7. Briefly: Induction of cell membrane disruption in human MCF7 cells expressing wild-type p53 at =>20 uM incubated for 4 hrs by LDH assay relative to control. The format is functional.
Data set [12] relates to HCT-116. Briefly: Induction of apoptosis in human HCT116 cells expressing wild-type p53 at =< 10 uM incubated for 48 hrs by Annexin V/propidium iodide-staining based flow cytometric analysis relative to control. The format is functional.
For data set [13], the system named is HCT-116. Put plainly: Induction of cell membrane disruption in human HCT116 cells expressing wild-type p53 at =>20 uM incubated for 4 hrs by LDH assay relative to control. Type of data set: functional.
Data set [14] is described as follows: Permeability of the compound in human HeLa cells at 5 uM incubated for 2 hrs by flow cytometric analysis relative to CPP9. The format is ADME, cell-based.

In the case of `CC[C@H](C)[C@@H]1NC(=O)[C@@H](NC(=O)[C@H](CCC(=O)O)NC(=O)[C@@H]2CCCN2C(=O)[C@H](Cc2ccc(O)cc2)NC(=O)CNC(=O)CNC(C)=O)CC(=O)NCCCC[C@@H](C(=O)N[C@@H](Cc2cnc[nH]2)C(=O)N[C@@H](CC(C)C)C(=O)N[C@@H](CCC(N)=O)C(=O)N[C@@H](CCCNC(=N)N)C(=O)N[C@H](C(=O)N[C@H](C(=O)N[C@@H](CC(C)C)C(=O)NCCOCCOCC(=O)NCCOCCOCC(=O)N[C@@H](CNC(=O)[C@H](CCCNC(=N)N)NC(=O)[C@H](CCCNC(=N)N)NC(=O)[C@H](CCCNC(=N)N)NC(=O)[C@H](CCCNC(=N)N)NC(=O)[C@H](CCCNC(=N)N)NC(=O)[C@H](CCCNC(=N)N)NC(=O)[C@H](CCCNC(=N)N)NC(=O)[C@H](CCCNC(=N)N)NC(=O)[C@H](CCCNC(=N)N)NC(C)=O)C(N)=O)[C@@H](C)CC)C(C)C)NC(=O)[C@H](CC(=O)O)NC(=O)[C@H](CC(C)C)NC1=O`, the result in the data set on MCF7 [1] was Active. The same compound displayed a half-inhibitory concentration (IC50) in the data set with SW480 of over 20 µM.
For the compound `CC(=O)N[C@@H](Cc1ccc(O)cc1)C(=O)NCC(=O)N[C@@H](CCCNC(=N)N)C(=O)N[C@@H](CCCCN)C(=O)N[C@@H](CCCCN)C(=O)N[C@@H](CCCNC(=N)N)C(=O)N[C@@H](CCCNC(=N)N)C(=O)N[C@@H](CCC(N)=O)C(=O)N[C@@H](CCCNC(=N)N)C(=O)N[C@@H](CCCNC(=N)N)C(=O)N[C@@H](CCCNC(=N)N)C(=O)NCCCC[C@H](NC(=O)COCCOCCNC(=O)[C@H](CO)NC(=O)[C@@H](NC(=O)[C@H](CC(C)C)NC(=O)[C@H](CCC(N)=O)NC(=O)[C@@H]1CCCCNC(=O)C[C@H](NC(=O)[C@H](Cc2ccccc2)NC(=O)[C@@H](NC(=O)[C@H](CC(C)C)NC(C)=O)[C@@H](C)O)C(=O)N[C@@H](Cc2cnc[nH]2)C(=O)N[C@@H](Cc2ccc(O)cc2)C(=O)N[C@@H](Cc2c[nH]c3ccccc23)C(=O)N1)[C@@H](C)O)C(N)=O`, the Activity entry in the data set with HeLa [2] and in the data set with HeLa [4] was “Toxic” each time. Besides, the result with SJSA-1 [3] was inactive.
In the case of `CC[C@H](C)[C@@H]1NC(=O)[C@@H](NC(=O)[C@H](CCC(=O)O)NC(=O)[C@@H]2CCCN2C(=O)[C@H](Cc2ccc(O)cc2)NC(=O)CNC(=O)CNC(C)=O)CC(=O)NCCCC[C@@H](C(=O)N[C@@H](Cc2cnc[nH]2)C(=O)N[C@@H](CC(C)C)C(=O)N[C@@H](CCC(N)=O)C(=O)N[C@@H](CCCNC(=N)N)C(=O)N[C@H](C(=O)N[C@H](C(=O)N[C@@H](CC(C)C)C(=O)NCCOCCOCC(=O)NCCOCCOCC(=O)N[C@@H](CNC(=O)[C@H](CCCNC(=N)N)NC(=O)[C@H](CCCNC(=N)N)NC(=O)[C@H](CCCNC(=N)N)NC(=O)[C@H](CCC(N)=O)NC(=O)[C@H](CCCNC(=N)N)NC(=O)[C@H](CCCNC(=N)N)NC(=O)[C@H](CCCCN)NC(=O)[C@H](CCCCN)NC(=O)[C@H](CCCNC(=N)N)NC(=O)CNC(=O)[C@H](Cc2ccc(O)cc2)NC(C)=O)C(N)=O)[C@@H](C)CC)C(C)C)NC(=O)[C@H](CC(=O)O)NC(=O)[C@H](CC(C)C)NC1=O`, the outcome with MCF7 [1] was Active. In the data set with SW480, this compound came in with an IC50 of over 20 µM.
`CC(=O)N[C@@H](CCCNC(=N)N)C(=O)N[C@@H](CCCNC(=N)N)C(=O)N[C@@H](CCCNC(=N)N)C(=O)N[C@@H](CCCNC(=N)N)C(=O)N[C@@H](CCCNC(=N)N)C(=O)N[C@@H](CCCNC(=N)N)C(=O)N[C@@H](CCCNC(=N)N)C(=O)N[C@@H](CCCNC(=N)N)C(=O)N[C@@H](CCCNC(=N)N)C(=O)NCCCC[C@H](NC(=O)COCCOCCNC(=O)[C@H](CO)NC(=O)[C@@H](NC(=O)[C@H](CC(C)C)NC(=O)[C@H](CCC(N)=O)NC(=O)[C@@H]1CCCCNC(=O)C[C@H](NC(=O)[C@H](Cc2ccccc2)NC(=O)[C@@H](NC(=O)[C@H](CC(C)C)NC(C)=O)[C@@H](C)O)C(=O)N[C@@H](Cc2cnc[nH]2)C(=O)N[C@@H](Cc2ccc(O)cc2)C(=O)N[C@@H](Cc2c[nH]c3ccccc23)C(=O)N1)[C@@H](C)O)C(N)=O`: the Activity entry in the data set on HeLa [2] and in the data set on HeLa [4] was “Toxic” in each case. Besides, in the data set with SJSA-1 [3], the outcome was inactive.
As to `CC(=O)N[C@@H](CC(C)C)C(=O)N[C@H](C(=O)N[C@@H](Cc1ccccc1)C(=O)N[C@H]1CC(=O)NCCCC[C@@H](C(=O)N[C@@H](CCC(N)=O)C(=O)N[C@@H](CC(C)C)C(=O)N[C@H](C(=O)N[C@@H](CO)C(=O)NCCOCCOCC(=O)N[C@@H](CCCCN)C(N)=O)[C@@H](C)O)NC(=O)[C@H](Cc2c[nH]c3ccccc23)NC(=O)[C@H](Cc2ccc(O)cc2)NC(=O)[C@H](Cc2cnc[nH]2)NC1=O)[C@@H](C)O` (Ac-LTFDHYWKQLTS[AEEA]K-NH2; lactam 4-8), the outcome in the data set on SJSA-1 [5] was inactive.
For `CC(=O)N[C@@H](CC(C)C)C(=O)N[C@H](C(=O)N[C@@H](Cc1ccccc1)C(=O)N[C@H]1CC(=O)NCCCC[C@@H](C(=O)N[C@@H](CCC(N)=O)C(=O)N[C@@H](CC(C)C)C(=O)N[C@H](C(=O)N[C@@H](CO)C(=O)NCCOCCOCC(=O)N[C@@H](CCCCNC(=O)CC[C@@H]2NC(=O)[C@@H](CCCNC(=N)N)NC(=O)[C@H](CCCNC(=N)N)NC(=O)[C@@H](CCCNC(=N)N)NC(=O)[C@H](CCCNC(=N)N)NC(=O)[C@H](Cc3ccc4ccccc4c3)NC(=O)[C@@H](Cc3ccccc3)NC2=O)C(N)=O)[C@@H](C)O)NC(=O)[C@H](Cc2c[nH]c3ccccc23)NC(=O)[C@H](Cc2ccc(O)cc2)NC(=O)[C@H](Cc2cnc[nH]2)NC1=O)[C@@H](C)O` (I: Ac-LTFDHYWKQLTS[AEEA]K-NH2 / II: cyclo([2Nal]R[dR]R[dR]E[dF]); lactam I:4-I:8; amide I:14-II:6), the EC50 in the data set on SJSA-1 [6] was 3.8 µM. Also, the Activity result with HeLa [2] was “Toxic”; in the data set on MCF7 [7], 5 - 50%; in the data set on HeLa [8] it was 100%; in the data set on HeLa [10], 5 - 50%; with SJSA-1 [3] it was “Dose-dependent effect”; in the data set on HeLa [4], “Toxic”. Moreover, the figures for the Activity in the data set on MCF7 [11], with HCT-116 [12] and with HCT-116 [13] were 100%, 5 - 50% and 100%, respectively. Further, the result in the data set on SJSA-1 [9] was Active.
Take `CC[C@H](C)[C@@H]1NC(=O)[C@@H](NC(=O)[C@H](CCC(=O)O)NC(=O)[C@@H]2CCCN2C(=O)[C@H](CC(N)=O)NC(=O)[C@H](CCC(=O)O)NC(=O)CCNC(=O)c2ccc(-c3c4ccc5cc(O)ccc5c4oc4c3ccc3cc(=O)ccc34)c(C(=O)O)c2)CSCc2cccc(c2)CSC[C@@H](C(=O)N[C@@H](Cc2cnc[nH]2)C(=O)N[C@H](C(=O)N[C@@H](CCC(N)=O)C(=O)N[C@@H](CCCNC(=N)N)C(=O)N[C@H](C(=O)N[C@@H](CCSC)C(N)=O)C(C)C)C(C)C)NC(=O)[C@H](CC(=O)O)NC(=O)[C@H](CC(C)C)NC1=O` ({X2-βAla}-ENPECILDCHVQRVM-NH2; linker 5-9 via mXylylene): the permeability in data set [14] turned out to be 2.5%.
As for `CC[C@H](C)[C@@H]1NC(=O)[C@@H](NC(=O)[C@H](CCC(=O)O)NC(=O)[C@@H]2CCCN2C(=O)[C@H](CC(N)=O)NC(=O)CCNC(=O)c2ccc(-c3c4ccc5cc(O)ccc5c4oc4c3ccc3cc(=O)ccc34)c(C(=O)O)c2)CSCc2cccc(c2)CSC[C@@H](C(=O)N[C@@H](Cc2cnc[nH]2)C(=O)N[C@H](C(=O)N[C@@H](CCC(N)=O)C(=O)N[C@@H](CCCNC(=N)N)C(=O)N[C@H](C(=O)N[C@@H](CCSC)C(N)=O)C(C)C)C(C)C)NC(=O)[C@H](CC(=O)O)NC(=O)[C@H](CC(C)C)NC1=O` ({X2-βAla}-NPECILDCHVQRVM-NH2; linker 4-8 via mXylylene), the permeability in data set [14] was 8.9%.
In the case of `COc1ccc(C2=N[C@@H](c3ccc(Cl)cc3)[C@@H](c3ccc(Cl)cc3)N2C(=O)N2CCNC(=O)C2)c(OC(C)C)c1` [NUTLIN-3], in the data set with SJSA-1 [6], the EC50 amounted to 4.2 µM.

As usually defined, the IC50 is the concentration needed to halve the response being measured. A high value points to weaker potency. A word on the EC50: it is the midpoint of the concentration-response curve.

The record behind these values is ChEMBL document CHEMBL4376831, “Enhancing the Cell Permeability of Stapled Peptides with a Cyclic Cell-Penetrating Peptide” (J Med Chem, 2019).
